For data set [1], the system named is PHA-activated PBMCs. In words: Cell viability by trypan blue staining in PHA-activated PBMCs. The data set is classed as cell-based, human. Here is the method: (§1) The effect of RV and […] on PBMC proliferation at the concentrations shown to enhance the anti-HIV effect of ddI were examined. Cellular proliferation in culture in the presence or absence of drugs was measured by commercial MTT assay, according to the manufacturer's instructions (Boehringer Mannheim). Cell viability was determined by trypan blue staining.
In a separate study designed to assess cell viability by trypan blue staining, PHA-activated PBMCs were cultured for 7 days in the presence of IL-2, 2 μM ddI, plus varying concentrations of RV. When RV was used at 25 μM, over 60% of cells became trypan blue stained, therefore indicating cell death. In the absence of RV or when RV was used at 5 or 10 μM, values of more than 95% cell viability were obtained.

Data set [2] has as its system PHA-activated PBMCs. Description: 3H-thymidine incorporation (DNA synthesis) assay in proliferating PBMCs. The data set is classed as cell-based, human. The note with it: RV 10 μM; day 2.
Method: For example, a thymidine incorporation assay using PBMC's may be carried out as follows. PBMC's are suspended, then 0.1 ml (100,000) of cells are added to each designated well of a 96-well plate. The plates are placed into a 37° C., 5% CO2, 95% humid incubator for the predetermined incubation periods—normally 2 and 5 days. At the end of the incubation period, and at a standard time prior to harvesting the plate (6-18 hours), 1.0-1.5 μCi (20 μl of 50-75 mCi/ml in complete medium) of [^3H]-labeled methyl thymidine is added to each well of the assay. The plates are then incubated for the remaining 6-18 hours. At the end of the [^3H]-thymidine pulse, the plates are harvested onto filter paper using a semi-automated multi-well harvester. The filter paper containing bound DNA may be dried using either ethanol or by moderate microwave heating. The filter paper samples are counted in a scintillation counter using standard procedures.
For another data set, the system named is PHA-stimulated PBMCs. Description: MTT cell proliferation assay in PHA-stimulated PBMCs. The data set is classed as cell-based, human. Here is the method: as §1
Proliferation was measured on PHA-stimulated PBMCs cultured in the presence of IL-2, 2 μM ddI, and RV or HU. The MTT assay was performed on days 2 and 5 (FIG. 8), and days 2 and 7 (FIG. 20) after the addition of the drugs. […] On day 5, RV at 10 μM inhibited proliferation by 30%, whereas HU inhibited proliferation by 40 to 50%, depending on the donor.
Proliferating PBMCs were cultured in the presence of RV or HU for 5 days. On day 2 and 5 an MTT assay and a ^3H-thymidine incorporation assay were performed. The MTT is a […] assay that measures cellular metabolic activity and directly correlates to the number of cells in the culture. The ^3H-thymidine incorporation assay relies on the incorporation of the radioactive nucleoside ^3H-thymidine into newly synthesized DNA. […] These differences between the effects of RV and HU were even more striking in the MTT and ^3H-thymidine incorporation assays conducted on day 5 (FIG. 12 and FIG. 13, respectively).

The subject of another data set is HTLV-IIIB. Description: p24 antigen in infected resting T-lymphocytes exposed to drugs for 6 days before PHA activation. The data set is classed as cell-based, HIV-1. The method, then:
The effect of RV and nucleoside analogues in infected resting T-lymphocytes was evaluated in the present example. Purified resting cells were used. Absence of activated lymphocytes in the preparation was determined by incubation of the cells in the presence of a monoclonal antibody directed against the low affinity IL-2 receptor CD25 (Pharmingen, San Diego, Calif.), and subsequent analysis by flow cytometry. […] Cells were infected with HTLV-IIIB at a multiplicity of infection of 10^4 TCID50/10^6 cells for 3 hours. A high multiplicity of infection (m.o.i.) was used because of a reported short half life of HIV-1 unintegrated DNA in infected resting lymphocytes. Infected cells were washed 3 times with PBS to remove virus excess and resuspended in 10% FBS RPMI medium supplemented with drugs. To ensure that any antiviral activity exerted by the drugs occurred during the resting state, drugs were removed six days after infection by washing with PBS 3 times, and cells were activated by culturing in the presence of PHA for 2 days. Cells were then cultured in IL-2 medium without drugs, and supernatants were monitored for the presence of p24 antigen. Cultures were maintained for 20 days.
Purified resting T-lymphocytes from a seronegative donor were infected with HTLV-IIIB at the high multiplicity of infection and cultured in the presence of 5 or 10 μM RV plus ddI (0, 0.25, 0.5 μM), ddC (0, 0.1 μM) or AZT (0, 4 μM) for 6 days. Concentrations used for ddC and AZT correspond to the highest, nontoxic concentration attainable in plasma of treated individuals. […] On day 6 after infection, drugs were washed away and cells were activated with PHA. The extent of viral replication was evaluated on day 6 (prior to PHA activation) and days 14 and 20 after infection. On day 6 very low amounts of p24 antigen could be detected under every condition tested, likely representing residual virus from the infecting inoculum. […] No toxicity was found by the MTT assay in uninfected culture controls treated with 5 μM RV and 0.5 μM ddI for 20 days under the same conditions.

The test system of data set [3] is HIV-1RTMDR1 isolate (M41L, L74V, V106A and T215Y). Description: p24 antigen in activated PBMCs infected with isolate RTMDR1. The data set is classed as cell-based. An excerpt: (§2) The present example provides data to test whether viral isolates carrying mutations in the RT gene that confer resistance to ddI could be rendered sensitive when the nucleoside analogue was combined with RV. Viruses containing one or more of the mutations associated with resistance to ddI, e.g., an isolate carrying the L74V mutation which confers primary resistance to ddI, a virus isolate carrying 4 different resistance-associated mutations in the RT gene (HIV-1 RTMDR1) were used to infect PHA-stimulated PBMCs. The HIV-174V isolate, and the HIV-1RTMDR1 isolate (containing the M41L, L74V, V106A and T215Y mutations, conferring resistance to AZT, ddI, nevirapine and other non-nucleotide RT inhibitors) were obtained from Dr. Larder at the National Institutes of Health AIDS Research and Reference Reagent Program (Catalog #2528 and #2529, respectively, Rockville, Md.). In addition, viruses having mutations 65R, 74V, 184V in the RT gene, and a virus containing the multiple-nucleoside-resistance mutation 151M were assayed in infectivity assays using RV plus ddI. The mutations present in the RT gene of each virus as well as their susceptibility to ddI are as follows: HIV-174V(ddIIC90=2.6 μM); HIV-141L, 74V, 106A, 215Y (ddIIC90=4.5 μM); HIV-165R, 74V, 184V (ddIIC90>20 μM) and HIV-162V, 751, 77L, 151M (ddIIC90>20 μM). […]

Data set [4] concerns HIV-174V isolate (L74V mutation in the RT gene). In words: p24 antigen in activated PBMCs infected with ddI-resistant isolate 74V. The data set is classed as cell-based, HIV-1.
Excerpt: as §2

In a further data set the test system is HIV-165R, 74V, 184V. In words: p24 antigen in activated PBMCs infected with isolate 65R, 74V, 184V. The data set is classed as cell-based, HIV-1. The note with it: Human immunodeficiency virus 1, PBMC, read-out: ddI IC90.
Excerpt: as §2

The test system of the next data set is HIV-162V, 751, 77L, 151M. In words: p24 antigen in activated PBMCs infected with isolate 62V, 75I, 77L, 151M. The data set is classed as cell-based, HIV-1. The note with it: Human immunodeficiency virus 1, PBMC, read-out: ddI IC90.
Excerpt: as §2

Where [5] appears, read: Human immunodeficiency virus 1, PBMC, read-out: ddI IC90.

Bounds are passed on as bounds.

`Oc1ccc(/C=C/c2cc(O)cc(O)c2)cc1` [RV, trans-3, 4′, 5-trihydroxystilbene]: in the data set on PHA-activated PBMCs [1] (RV 10 μM), the toxicity to cells result was “not toxic”. Also, in the data set on PHA-activated PBMCs [1] (RV 25 μM, 7 days, with IL-2 and 2 μM ddI), the “trypan blue stained cells (cell death)” value is listed as “over 60%”. The cell viability entry in the data set on PHA-activated PBMCs [1] (RV 5 or 10 μM, 7 days, with IL-2 and 2 μM ddI) is “more than 95%”. Further, the “3H-thymidine incorporation (DNA synthesis)” value in the data set with PHA-activated PBMCs [2] is on record as “higher amounts of ^3H-thymidine incorporation than the untreated control”. Also, the “impact on cell proliferation” value with PHA-stimulated PBMCs (5 μM RV, with IL-2 and 2 μM ddI) is given as “Minimal impact on cell proliferation”. In addition, in the data set with PHA-stimulated PBMCs (10 μM RV, day 7, with IL-2 and 2 μM ddI), the “OD values in the MTT assay” value was “higher than those obtained with 100 μM HU”. Also, in the data set on PHA-stimulated PBMCs (RV 10 μM, day 2, no ddI), the MTT values entry is “slightly lower than the untreated control”. For the same molecule, the inhibition of proliferation entry in the data set with PHA-stimulated PBMCs (RV 10 μM, day 2, with IL-2 and 2 μM ddI) is listed as “inhibited proliferation slightly”; in the data set with PHA-stimulated PBMCs (RV 10 μM, day 5, with IL-2 and 2 μM ddI), 30%. The “virus production on days 14 and 20 following PHA activation” value in the data set with HTLV-IIIB (RV alone (5 or 10 μM)) is “considerable virus production”.

Consider `OC[C@@H]1CC[C@H](n2cnc3c(O)ncnc32)O1` [ddI, 2′,3′-dideoxyinosine], for which the “suppression of viral replication” value is reported as 34% in data set [3] (2 μM ddI alone) and 28% in data set [4] (2 μM ddI alone). For the same molecule, the IC90 in data set [3] (setting [5]) is 4.5 µM; in data set [4] (setting [5]), 2.6 µM; in the data set on HIV-165R, 74V, 184V it was over 20 µM; in the data set with HIV-162V, 751, 77L, 151M it was over 20 µM. In addition, in the data set with HTLV-IIIB (ddI 1 μM, previous studies under these conditions), the virus production entry is “completely suppress virus production”. The “viral replication after PHA activation” value with HTLV-IIIB (ddI by itself (0.25, 0.5 μM)) is “did not suppress viral replication”.
